Results from US7220770B2, “Heterocyclo-substituted imidazoles for the treatment of inflammation” (priority 1994, dated 2007).

Row | SMILES | melting point [°C]
1 | CS(=O)(=O)c1ccc(-n2cc(CSc3ccccc3Cl)nc2-c2ccc(Cl)cc2)cc1 [Example 170, 2-(4-Chlorophenyl)-4-[[(2-chlorophenyl)thio)methyl]-1-[4-(methylsulfonyl)phenyl]-1H-imidazole] | 153
2 | Cc1ccccc1SCc1cn(-c2ccc(S(C)(=O)=O)cc2)c(-c2ccc(Cl)cc2)n1 [Example 171, 2-(4-Chlorophenyl)-4-[[(2-methylphenyl)thio]methyl]-1-[4-(methylsulfonyl)phenyl]-1H-imidazole] | 51
3 | CC(C)c1ccccc1SCc1cn(-c2ccc(S(C)(=O)=O)cc2)c(-c2ccc(Cl)cc2)n1 [Example 173] | 68 to 73
4 | CS(=O)(=O)c1ccc(-n2cc(C#N)nc2-c2ccc(Cl)cc2)cc1 [Example 174, 2-(4-Chlorophenyl)-1-[4-(methylsulfonyl)phenyl]-1H-imidazole-4-carbonitrile] | 205
5 | CS(=O)(=O)c1ccc(-n2cc(CC#N)nc2-c2ccc(Cl)cc2)cc1 [Example 175, 2-(4-Chlorophenyl)-1-[4-(methylsulfonyl)phenyl]-1H-imidazole-4-acetanitrile] | 197
6 | CS(=O)(=O)c1ccc(-n2cc(CC(=O)O)nc2-c2ccc(Cl)cc2)cc1 [Example 176, 2-(4-Chlorophenyl)-1-[4-(methylsulfonyl)phenyl]-1H-imidazole-4-acetic acid] | 263 to 264
7 | CS(=O)(=O)c1ccc(-n2cc(COCc3ccccc3)nc2-c2ccc(Cl)cc2)cc1 [Example 178, 2-(4-Chlorophenyl)-1-[4-(methyloulfonyl)phenyl]-4-(phenylmethoxymethyl)-1H-imidazole] | 64 to 65
